Values joined by “and” are separate entries in the source; they are usually repeats but may differ in a detail not shown here. Identical values can stand only once.
How the values were obtained:
[1] = molecular target: Norepinephrine transporter (Rattus norvegicus, UniProt Q9JIA2)
[2] = molecular target: Sodium-dependent serotonin transporter (Rattus norvegicus, UniProt P31652)
[3] = molecular target: Kappa-type opioid receptor (Rattus norvegicus, UniProt P34975)
Mu-type opioid receptor = Mu-type opioid receptor (Rattus norvegicus, UniProt P33535)
Mu-type opioid receptor, sequence (P33535 whole entry): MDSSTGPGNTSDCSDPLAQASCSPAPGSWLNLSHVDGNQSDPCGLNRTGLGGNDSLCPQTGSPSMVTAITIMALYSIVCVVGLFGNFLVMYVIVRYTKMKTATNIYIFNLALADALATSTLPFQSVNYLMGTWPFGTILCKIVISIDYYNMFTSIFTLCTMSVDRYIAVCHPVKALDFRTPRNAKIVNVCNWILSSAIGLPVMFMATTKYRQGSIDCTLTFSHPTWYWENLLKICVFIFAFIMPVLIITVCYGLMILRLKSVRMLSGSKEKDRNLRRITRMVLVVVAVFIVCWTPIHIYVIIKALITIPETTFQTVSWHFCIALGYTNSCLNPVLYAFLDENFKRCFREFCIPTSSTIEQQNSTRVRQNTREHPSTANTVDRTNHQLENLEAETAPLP

Sodium-dependent serotonin transporter, sequence (P31652 whole entry): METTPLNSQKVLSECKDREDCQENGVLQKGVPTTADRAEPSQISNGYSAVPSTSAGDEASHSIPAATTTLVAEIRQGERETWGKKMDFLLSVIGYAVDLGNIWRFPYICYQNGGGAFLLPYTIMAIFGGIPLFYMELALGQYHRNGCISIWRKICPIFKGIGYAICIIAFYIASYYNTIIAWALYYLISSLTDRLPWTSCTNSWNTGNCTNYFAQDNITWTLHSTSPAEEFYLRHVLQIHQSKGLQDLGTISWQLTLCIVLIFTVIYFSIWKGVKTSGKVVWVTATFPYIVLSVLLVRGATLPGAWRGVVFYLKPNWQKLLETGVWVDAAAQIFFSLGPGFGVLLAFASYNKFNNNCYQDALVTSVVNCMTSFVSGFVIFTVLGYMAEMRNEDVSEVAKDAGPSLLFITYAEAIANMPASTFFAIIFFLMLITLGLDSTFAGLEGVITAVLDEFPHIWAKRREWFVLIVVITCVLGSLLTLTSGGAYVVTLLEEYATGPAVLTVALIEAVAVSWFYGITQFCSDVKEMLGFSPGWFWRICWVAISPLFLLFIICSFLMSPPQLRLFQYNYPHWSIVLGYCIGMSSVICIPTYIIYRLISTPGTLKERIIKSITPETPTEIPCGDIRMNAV
Kappa-type opioid receptor, sequence (P34975 whole entry): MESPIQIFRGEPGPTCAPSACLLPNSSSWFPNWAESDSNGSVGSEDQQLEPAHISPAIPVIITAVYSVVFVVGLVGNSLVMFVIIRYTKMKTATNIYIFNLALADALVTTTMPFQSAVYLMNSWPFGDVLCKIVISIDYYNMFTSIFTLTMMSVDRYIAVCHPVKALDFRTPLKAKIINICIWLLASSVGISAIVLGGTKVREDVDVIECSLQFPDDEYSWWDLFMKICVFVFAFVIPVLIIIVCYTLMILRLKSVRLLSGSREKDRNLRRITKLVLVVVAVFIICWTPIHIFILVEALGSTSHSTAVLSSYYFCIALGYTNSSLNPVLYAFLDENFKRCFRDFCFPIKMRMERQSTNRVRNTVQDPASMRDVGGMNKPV

For CCC(OC(C)=O)C(CC(C)N(C)C)(c1ccccc1)c1ccccc1 (stereo not drawn), the Ki [1] was > 10 µM.

For CN1CCC23CCCCC2C1Cc1ccc(O)cc13 (stereo not drawn) [17-methyl-17-azatetracyclo[7.5.3.0^{1,10}.0^{2,7}]heptadeca-2(7),3,5-trien-4-ol], the Ki [2] was 0.401 µM and 0.0863 µM and the Ki [1] was 0.34 µM and 1.21 µM.

In the case of O=C1CC[C@@]2(O)[C@H]3Cc4ccc(O)c5c4[C@@]2(CCN3CC2CC2)[C@H]1O5 [(1S,5R,13R,17S)-4-(cyclopropylmethyl)-10,17-dihydroxy-12-oxa-4-azapentacyclo[9.6.1.0^{1,13}.0^{5,17}.0^{7,18}]octadeca-7(18),8,10-trien-14-one], the Ki [2] is reported as > 10 µM and the Ki [1] is reported as > 10 µM.

CC1(C)SSC(C)(C)[C@@H](NC(=O)[C@@H](N)Cc2ccc(O)cc2)C(=O)NCC(=O)N[C@@H](Cc2ccccc2)C(=O)N[C@H]1C(=O)O [(4S,7S,13S)-13-[(2S)-2-amino-3-(4-hydroxyphenyl)propanamido]-7-benzyl-3,3,14,14-tetramethyl-6,9,12-trioxo-1,2-dithia-5,8,11-triazacyclotetradecane-4-carboxylic acid] was tested, and the Ki [2] was > 10 µM, the Ki [3] was > 10 µM and the Ki [1] was > 10 µM.

With CO[C@@]12CC[C@@]3(C[C@@H]1[C@@](C)(O)C(C)(C)C)[C@H]1Cc4ccc(O)c5c4[C@@]3(CCN1CC1CC1)[C@H]2O5 [BUPRENORPHINE] the Ki [2] was > 10 µM and the Ki [1] was > 10 µM.

With COc1ccc2c3c1OC1C(O[Si](C)(C)C)C=CC4C(C2)N(C)CCC341 (stereo not drawn) [CAS_553916] the Ki (Mu-type opioid receptor) was 0.0111 µM, the Ki [2] was > 10 µM and the Ki [3] was 0.501 µM. For the same compound, the Ki [1] was > 10 µM.

In the case of C=CCN1CC[C@]23CCCCC2[C@H]1Cc1ccc(O)cc13 (stereo partly drawn) [Levallorphan], the Ki [2] is reported as > 10 µM and 7.95 µM.

With COc1ccc2c(c1)C13CCCCC1C(C2)N(C)CC3 (stereo not drawn) [Levomethorpan] the Ki [1] was 0.24 µM and 0.179 µM.

With c1cc2c(c(NC3=NCCN3)c1)CCCC2 [NSC_19472] the Ki (Mu-type opioid receptor) was 2.12 µM and 1.33 µM and > 10 µM, the Ki [2] was 0.992 µM and 0.528 µM and 2.35 µM and the Ki [3] was > 10 µM. The Ki [1] was 0.785 µM and 2.51 µM and 0.432 µM.

COc1ccc2c3c1OC1C(O)C=CC4C(C2)N(C)CCC341 (stereo not drawn) [NSC_223652] was tested, and the Ki [2] was > 10 µM and the Ki [1] was > 10 µM.

COc1ccc2c3c1O[C@H]1C(=O)CCC4(O)[C@@H](C2)N(C)CC[C@]314 (stereo partly drawn) [Oxycodone] was tested, and the Ki [2] was > 10 µM and the Ki [1] was > 10 µM.

With CCC(=O)O[C@](Cc1ccccc1)(c1ccccc1)[C@H](C)CN(C)C [PROPOXYPHENE] the Ki (Mu-type opioid receptor) was 0.0345 µM, the Ki [2] was > 10 µM and the Ki [3] was 1.22 µM. For the same compound, the Ki [1] was > 10 µM.

For C=CCN1CC[C@]23c4c5ccc(O)c4O[C@H]2C(=O)CC[C@@]3(O)[C@H]1C5 [[17-(2,3-3H-2-propenyl)]-4,5a-epoxy-3,14-dihydroxymorphinan-6-one], the Ki [2] was > 10 µM and the Ki [1] was > 10 µM.

C[C@@H](NC(=O)[C@@H](N)Cc1ccc(O)cc1)C(=O)NCC(=O)N(C)[C@@H](Cc1ccccc1)C(=O)NCCO [[tyrosyl-3,5-3H(N)]-D-Ala2-Mephe4-glyol5-enkephalin] was tested, and the Ki [2] was > 10 µM, the Ki [3] was 0.21 µM and the Ki [1] was > 10 µM.
